Assays:
[1] = biological target: Alpha-2B adrenergic receptor (Homo sapiens) (UniProt P18089); details: Compound concentration 10.0 uM
[2] = biological target: Death-associated protein kinase 3 (Homo sapiens) (UniProt O43293); details: Compound concentration 100.0 nM
[3] = biological target: Discoidin domain-containing receptor 2 (Homo sapiens) (UniProt Q16832); details: Compound concentration 100.0 nM
[4] = biological target: Activin receptor type-1B (Homo sapiens) (UniProt P36896); details: Compound concentration 100.0 nM
[5] = system: Tyrosine-protein kinase ABL1 (Homo sapiens), P00519 [T315I]; details: Compound concentration 100.0 nM
[6] = biological target: Tyrosine-protein kinase Srms (Homo sapiens) (UniProt Q9H3Y6); details: Compound concentration 100.0 nM
[7] = biological target: Calcium/calmodulin-dependent protein kinase type II subunit gamma (Homo sapiens) (UniProt Q13555); details: Compound concentration 100.0 nM
[8] = biological target: G protein-coupled receptor kinase 3 (Homo sapiens) (UniProt P35626); details: Compound concentration 100.0 nM
[9] = system: Hepatocyte growth factor receptor (Homo sapiens), P08581 [M1250T]; details: Compound concentration 100.0 nM
[10] = biological target: Cyclin-dependent kinase 19 (Homo sapiens) (UniProt Q9BWU1); details: Compound concentration 100.0 nM
[11] = biological target: Mitogen-activated protein kinase kinase kinase 5 (Homo sapiens) (UniProt Q99683); details: Compound concentration 100.0 nM
[12] = biological target: Non-receptor tyrosine-protein kinase TNK1 (Homo sapiens) (UniProt Q13470); details: Compound concentration 100.0 nM
[13] = biological target: Activin receptor type-2B (Homo sapiens) (UniProt Q13705); details: Compound concentration 100.0 nM
[14] = biological target: cAMP-dependent protein kinase catalytic subunit PRKX (Homo sapiens) (UniProt P51817); details: Compound concentration 100.0 nM
[15] = biological target: Serine/threonine-protein kinase MRCK gamma (Homo sapiens) (UniProt Q6DT37); details: Compound concentration 100.0 nM
[16] = biological target: Cyclin-dependent kinase-like 5 (Homo sapiens) (UniProt O76039); details: Compound concentration 100.0 nM
[17] = biological target: Mitogen-activated protein kinase kinase kinase kinase 4 (Homo sapiens) (UniProt O95819); details: Compound concentration 100.0 nM
[18] = biological target: Dual specificity tyrosine-phosphorylation-regulated kinase 1B (Homo sapiens) (UniProt Q9Y463); details: Compound concentration 100.0 nM
[19] = biological target: Calcium/calmodulin-dependent protein kinase kinase 2 (Homo sapiens) (UniProt Q96RR4); details: Compound concentration 100.0 nM
[20] = biological target: Receptor tyrosine-protein kinase erbB-4 (Homo sapiens) (UniProt Q15303); details: Compound concentration 100.0 nM
[21] = biological target: Activin receptor type-1 (Homo sapiens) (UniProt Q04771); details: Compound concentration 100.0 nM
[22] = biological target: Serine/threonine-protein kinase TAO2 (Homo sapiens) (UniProt Q9UL54); details: Compound concentration 100.0 nM
[23] = biological target: Ephrin type-A receptor 1 (Homo sapiens) (UniProt P21709); details: Compound concentration 100.0 nM
[24] = system: Phosphatidylinositol 4,5-bisphosphate 3-kinase catalytic subunit alpha isoform (Homo sapiens), P42336 [E545A]; details: Compound concentration 100.0 nM
[25] = biological target: Serine/threonine-protein kinase RIO3 (Homo sapiens) (UniProt O14730); details: Compound concentration 100.0 nM
[26] = system: Tyrosine-protein kinase ABL1 (Homo sapiens), P00519 [F317I]; details: Compound concentration 100.0 nM
[27] = biological target: 5-hydroxytryptamine receptor 1B (Homo sapiens) (UniProt P28222); details: Compound concentration 10.0 uM
[28] = biological target: Ephrin type-A receptor 2 (Homo sapiens) (UniProt P29317); details: Compound concentration 100.0 nM
[29] = biological target: Serine/threonine-protein kinase 36 (Homo sapiens) (UniProt Q9NRP7); details: Compound concentration 100.0 nM
[30] = biological target: Cyclin-dependent kinase 8 (Homo sapiens) (UniProt P49336); details: Compound concentration 100.0 nM
[31] = biological target: Serine/threonine-protein kinase PAK 5 (Homo sapiens) (UniProt Q9P286); details: Compound concentration 100.0 nM
[32] = biological target: 3-phosphoinositide-dependent protein kinase 1 (Homo sapiens) (UniProt O15530); details: Compound concentration 100.0 nM
[33] = system: Receptor-type tyrosine-protein kinase FLT3 (Homo sapiens), P36888 [R834Q]; details: Compound concentration 100.0 nM
[34] = biological target: Aurora kinase B (Homo sapiens) (UniProt Q96GD4); details: Compound concentration 100.0 nM
[35] = biological target: Macrophage colony-stimulating factor 1 receptor (Homo sapiens) (UniProt P07333); details: Compound concentration 100.0 nM
[36] = biological target: TGF-beta receptor type-2 (Homo sapiens) (UniProt P37173); details: Compound concentration 100.0 nM
[37] = biological target: D(1A) dopamine receptor (Homo sapiens) (UniProt P21728); details: Compound concentration 10.0 uM
[38] = biological target: Fibroblast growth factor receptor 3 (Homo sapiens) (UniProt P22607); details: Compound concentration 100.0 nM
[39] = biological target: SRSF protein kinase 3 (Homo sapiens) (UniProt Q9UPE1); details: Compound concentration 100.0 nM
[40] = biological target: Tyrosine-protein kinase HCK (Homo sapiens) (UniProt P08631); details: Compound concentration 100.0 nM
[41] = biological target: Serine/threonine-protein kinase N2 (Homo sapiens) (UniProt Q16513); details: Compound concentration 100.0 nM
[42] = biological target: Phosphorylase b kinase regulatory subunit alpha, liver isoform (Homo sapiens) (UniProt P46019); details: Compound concentration 100.0 nM
[43] = system: eIF-2-alpha kinase GCN2 (Homo sapiens), Q9P2K8 [S808G]; details: Compound concentration 100.0 nM
[44] = biological target: Ribosomal protein S6 kinase alpha-1 (Homo sapiens) (UniProt Q15418); details: Compound concentration 100.0 nM
[45] = biological target: Serine/threonine-protein kinase MAK (Homo sapiens) (UniProt P20794); details: Compound concentration 100.0 nM

Serine/threonine-protein kinase N2 (Homo sapiens), sequence (Q16513 whole entry, looked up, canonical isoform): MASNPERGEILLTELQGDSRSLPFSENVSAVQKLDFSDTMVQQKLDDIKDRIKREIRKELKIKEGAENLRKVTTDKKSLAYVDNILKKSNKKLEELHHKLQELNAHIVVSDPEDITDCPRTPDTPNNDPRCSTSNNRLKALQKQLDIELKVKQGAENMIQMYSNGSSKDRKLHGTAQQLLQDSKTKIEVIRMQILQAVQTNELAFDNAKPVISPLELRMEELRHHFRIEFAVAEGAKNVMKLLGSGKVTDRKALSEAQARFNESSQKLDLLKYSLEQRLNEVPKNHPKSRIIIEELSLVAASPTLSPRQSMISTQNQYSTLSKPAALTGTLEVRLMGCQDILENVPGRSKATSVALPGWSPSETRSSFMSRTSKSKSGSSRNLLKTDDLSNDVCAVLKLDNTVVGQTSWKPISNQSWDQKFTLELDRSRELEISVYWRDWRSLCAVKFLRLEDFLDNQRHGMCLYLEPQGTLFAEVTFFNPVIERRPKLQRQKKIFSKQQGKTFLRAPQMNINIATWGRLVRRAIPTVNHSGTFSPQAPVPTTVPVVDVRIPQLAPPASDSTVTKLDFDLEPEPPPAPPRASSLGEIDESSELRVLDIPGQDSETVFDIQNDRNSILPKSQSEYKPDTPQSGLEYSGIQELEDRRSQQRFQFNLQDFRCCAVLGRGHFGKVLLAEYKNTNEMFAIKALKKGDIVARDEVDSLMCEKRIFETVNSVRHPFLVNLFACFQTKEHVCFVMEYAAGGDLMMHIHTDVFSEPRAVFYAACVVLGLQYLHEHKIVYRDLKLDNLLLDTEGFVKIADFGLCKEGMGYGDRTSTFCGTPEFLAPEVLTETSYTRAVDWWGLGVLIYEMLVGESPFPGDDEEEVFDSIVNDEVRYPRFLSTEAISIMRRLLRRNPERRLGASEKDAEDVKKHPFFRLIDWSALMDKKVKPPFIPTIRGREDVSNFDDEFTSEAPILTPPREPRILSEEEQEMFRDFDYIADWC
Serine/threonine-protein kinase TAO2 (Homo sapiens), sequence (Q9UL54 whole entry): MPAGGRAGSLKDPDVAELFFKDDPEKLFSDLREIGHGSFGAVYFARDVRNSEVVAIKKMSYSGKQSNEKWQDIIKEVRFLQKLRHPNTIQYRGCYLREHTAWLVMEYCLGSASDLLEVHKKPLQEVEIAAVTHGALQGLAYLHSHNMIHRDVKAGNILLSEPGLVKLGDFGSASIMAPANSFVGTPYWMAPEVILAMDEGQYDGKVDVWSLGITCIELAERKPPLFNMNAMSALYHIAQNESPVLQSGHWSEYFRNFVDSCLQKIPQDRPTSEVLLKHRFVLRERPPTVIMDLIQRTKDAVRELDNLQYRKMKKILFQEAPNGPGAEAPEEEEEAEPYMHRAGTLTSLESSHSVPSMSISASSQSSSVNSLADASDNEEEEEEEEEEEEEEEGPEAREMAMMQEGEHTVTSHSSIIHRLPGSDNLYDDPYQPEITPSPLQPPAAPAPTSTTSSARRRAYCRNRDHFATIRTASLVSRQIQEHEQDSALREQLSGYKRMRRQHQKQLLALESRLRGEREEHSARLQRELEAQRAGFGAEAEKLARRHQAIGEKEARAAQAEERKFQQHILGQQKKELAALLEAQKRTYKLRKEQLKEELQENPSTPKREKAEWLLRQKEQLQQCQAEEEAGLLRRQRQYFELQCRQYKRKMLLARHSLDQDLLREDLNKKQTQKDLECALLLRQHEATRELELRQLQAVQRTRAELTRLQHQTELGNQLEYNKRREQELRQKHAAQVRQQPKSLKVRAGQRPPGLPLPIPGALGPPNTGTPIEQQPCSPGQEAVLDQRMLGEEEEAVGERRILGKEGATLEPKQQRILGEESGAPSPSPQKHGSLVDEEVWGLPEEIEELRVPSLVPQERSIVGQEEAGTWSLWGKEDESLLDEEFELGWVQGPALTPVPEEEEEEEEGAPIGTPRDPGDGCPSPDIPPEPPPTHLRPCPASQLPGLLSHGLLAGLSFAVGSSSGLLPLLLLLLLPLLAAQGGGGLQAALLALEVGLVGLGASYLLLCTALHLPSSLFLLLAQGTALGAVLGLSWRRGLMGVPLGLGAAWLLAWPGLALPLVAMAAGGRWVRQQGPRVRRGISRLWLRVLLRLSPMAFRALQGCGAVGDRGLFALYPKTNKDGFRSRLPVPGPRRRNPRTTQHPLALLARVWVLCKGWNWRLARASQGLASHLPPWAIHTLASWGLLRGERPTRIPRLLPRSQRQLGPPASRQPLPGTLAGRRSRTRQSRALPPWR
SRSF protein kinase 3 (Homo sapiens), sequence (Q9UPE1 whole entry): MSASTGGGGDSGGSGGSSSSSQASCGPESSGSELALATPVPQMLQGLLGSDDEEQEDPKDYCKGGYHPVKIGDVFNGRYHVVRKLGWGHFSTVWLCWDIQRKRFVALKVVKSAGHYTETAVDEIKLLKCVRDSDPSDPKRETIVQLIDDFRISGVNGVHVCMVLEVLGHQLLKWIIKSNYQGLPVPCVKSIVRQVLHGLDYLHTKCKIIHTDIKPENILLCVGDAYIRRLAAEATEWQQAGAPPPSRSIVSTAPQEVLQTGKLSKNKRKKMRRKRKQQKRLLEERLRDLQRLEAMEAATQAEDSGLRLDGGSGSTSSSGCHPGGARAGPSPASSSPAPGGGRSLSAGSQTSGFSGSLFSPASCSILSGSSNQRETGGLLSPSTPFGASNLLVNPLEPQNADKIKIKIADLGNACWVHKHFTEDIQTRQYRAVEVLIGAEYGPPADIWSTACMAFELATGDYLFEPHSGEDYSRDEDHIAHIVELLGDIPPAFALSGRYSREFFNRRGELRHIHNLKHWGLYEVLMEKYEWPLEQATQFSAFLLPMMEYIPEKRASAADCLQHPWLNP
Serine/threonine-protein kinase MRCK gamma (Homo sapiens), sequence (Q6DT37 whole entry): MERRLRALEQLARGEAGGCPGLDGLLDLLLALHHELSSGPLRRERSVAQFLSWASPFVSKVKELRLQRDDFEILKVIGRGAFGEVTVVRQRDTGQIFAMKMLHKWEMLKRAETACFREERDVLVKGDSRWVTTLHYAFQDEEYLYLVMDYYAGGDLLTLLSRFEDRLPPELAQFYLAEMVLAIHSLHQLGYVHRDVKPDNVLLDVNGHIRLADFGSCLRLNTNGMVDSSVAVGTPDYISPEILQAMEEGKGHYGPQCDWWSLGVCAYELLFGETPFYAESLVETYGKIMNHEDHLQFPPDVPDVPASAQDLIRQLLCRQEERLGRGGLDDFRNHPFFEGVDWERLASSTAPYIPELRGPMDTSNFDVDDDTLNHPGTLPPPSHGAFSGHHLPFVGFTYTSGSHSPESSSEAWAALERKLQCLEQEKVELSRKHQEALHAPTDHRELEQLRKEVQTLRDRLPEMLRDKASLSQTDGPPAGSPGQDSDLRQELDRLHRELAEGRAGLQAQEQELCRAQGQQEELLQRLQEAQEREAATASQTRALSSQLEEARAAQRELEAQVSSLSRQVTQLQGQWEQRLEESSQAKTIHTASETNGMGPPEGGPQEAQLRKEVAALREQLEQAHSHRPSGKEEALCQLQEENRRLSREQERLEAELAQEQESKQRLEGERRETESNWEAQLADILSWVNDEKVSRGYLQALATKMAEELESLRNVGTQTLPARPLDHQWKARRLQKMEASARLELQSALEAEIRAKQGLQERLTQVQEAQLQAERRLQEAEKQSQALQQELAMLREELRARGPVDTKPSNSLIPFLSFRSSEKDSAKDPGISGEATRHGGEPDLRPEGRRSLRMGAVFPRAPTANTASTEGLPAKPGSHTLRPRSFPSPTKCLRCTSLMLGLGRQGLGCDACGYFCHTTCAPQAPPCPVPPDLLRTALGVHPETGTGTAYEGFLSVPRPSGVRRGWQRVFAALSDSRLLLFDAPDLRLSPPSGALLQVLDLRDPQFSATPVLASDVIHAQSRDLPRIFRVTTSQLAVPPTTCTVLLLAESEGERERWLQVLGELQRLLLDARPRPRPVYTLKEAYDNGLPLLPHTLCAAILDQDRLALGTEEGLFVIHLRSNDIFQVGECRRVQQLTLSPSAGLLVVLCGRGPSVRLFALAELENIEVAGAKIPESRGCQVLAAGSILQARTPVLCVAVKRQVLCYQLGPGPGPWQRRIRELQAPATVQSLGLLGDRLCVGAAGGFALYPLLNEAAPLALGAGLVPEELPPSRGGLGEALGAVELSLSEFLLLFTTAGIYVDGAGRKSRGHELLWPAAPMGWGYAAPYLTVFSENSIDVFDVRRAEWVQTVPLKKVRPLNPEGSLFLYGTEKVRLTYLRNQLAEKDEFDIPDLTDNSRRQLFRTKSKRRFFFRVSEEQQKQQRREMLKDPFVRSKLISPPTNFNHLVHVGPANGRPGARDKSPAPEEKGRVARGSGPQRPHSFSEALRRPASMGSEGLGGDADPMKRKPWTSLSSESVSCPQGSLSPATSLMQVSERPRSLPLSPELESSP
5-hydroxytryptamine receptor 1B (Homo sapiens), sequence (P28222 whole entry): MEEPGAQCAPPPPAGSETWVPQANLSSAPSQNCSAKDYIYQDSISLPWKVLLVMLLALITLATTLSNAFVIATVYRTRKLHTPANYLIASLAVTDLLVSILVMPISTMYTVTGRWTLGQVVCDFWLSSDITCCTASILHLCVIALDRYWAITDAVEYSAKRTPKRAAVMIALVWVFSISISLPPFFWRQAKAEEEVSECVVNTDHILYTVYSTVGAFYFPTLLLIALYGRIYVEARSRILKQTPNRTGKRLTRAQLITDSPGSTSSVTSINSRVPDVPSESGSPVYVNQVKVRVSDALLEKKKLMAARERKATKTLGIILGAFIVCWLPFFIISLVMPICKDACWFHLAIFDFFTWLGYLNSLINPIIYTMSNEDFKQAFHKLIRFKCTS
cAMP-dependent protein kinase catalytic subunit PRKX (Homo sapiens), sequence (P51817 whole entry): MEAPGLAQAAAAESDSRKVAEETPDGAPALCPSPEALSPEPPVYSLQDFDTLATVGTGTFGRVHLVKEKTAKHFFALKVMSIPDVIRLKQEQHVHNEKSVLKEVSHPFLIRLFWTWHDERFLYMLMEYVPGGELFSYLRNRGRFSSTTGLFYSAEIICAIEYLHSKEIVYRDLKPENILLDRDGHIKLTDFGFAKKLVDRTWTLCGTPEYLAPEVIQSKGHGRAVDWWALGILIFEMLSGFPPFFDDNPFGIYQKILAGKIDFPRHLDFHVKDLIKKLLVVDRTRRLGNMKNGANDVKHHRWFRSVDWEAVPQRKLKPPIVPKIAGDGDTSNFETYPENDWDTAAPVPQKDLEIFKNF

Cc1c[nH]c2nccc(Oc3c(F)cc(Nc4cc(Cl)nc(N)n4)cc3F)c12 [BAY-549]
inactive: inhibition [1] 11.7% | residual activity [2] 97% | residual activity [3] 57% | residual activity [4] 87% | residual activity [5] 84% | residual activity [6] 100% | residual activity [7] 96% | residual activity [8] 78% | residual activity [9] 99% | residual activity [10] 80% | residual activity [11] 98% | residual activity [12] 100% | residual activity [13] 100% | residual activity [14] 77% | residual activity [15] 68% | residual activity [16] 73% | residual activity [17] 94% | residual activity [18] 100% | residual activity [19] 98% | residual activity [20] 100% | residual activity [21] 94% | residual activity [22] 100% | residual activity [23] 100% | residual activity [24] 88% | residual activity [25] 93% | residual activity [26] 100% | inhibition [27] -5.28% | residual activity [28] 100% | residual activity [29] 85% | residual activity [30] 69% | residual activity [31] 92% | residual activity [32] 100% | residual activity [33] 85% | residual activity [34] 82% | residual activity [35] 100% | residual activity [36] 100% | inhibition [37] 16.1% | residual activity [38] 100% | residual activity [39] 100% | residual activity [40] 100% | residual activity [41] 100% | residual activity [42] 89% | residual activity [43] 100% | residual activity [44] 100% | residual activity [45] 84%

Cn1cc(Cl)c2c(Oc3c(F)cc(Nc4cc(Cl)nc(N)n4)cc3F)ccnc21 [BAY-4900]
inactive: inhibition [1] -4.05% | residual activity [2] 100% | residual activity [3] 66% | residual activity [4] 98% | residual activity [5] 86% | residual activity [6] 100% | residual activity [7] 100% | residual activity [8] 83% | residual activity [9] 100% | residual activity [10] 88% | residual activity [11] 97% | residual activity [12] 100% | residual activity [13] 79% | residual activity [14] 100% | residual activity [15] 100% | residual activity [16] 78% | residual activity [17] 86% | residual activity [18] 82% | residual activity [19] 99% | residual activity [20] 97% | residual activity [21] 85% | residual activity [22] 100% | residual activity [23] 100% | residual activity [24] 88% | residual activity [25] 93% | residual activity [26] 93% | inhibition [27] 5.3% | residual activity [28] 100% | residual activity [29] 93% | residual activity [30] 97% | residual activity [31] 90% | residual activity [32] 61% | residual activity [33] 83% | residual activity [34] 78% | residual activity [35] 93% | residual activity [36] 90% | inhibition [37] 13.2% | residual activity [38] 99% | residual activity [39] 100% | residual activity [40] 100% | residual activity [41] 75% | residual activity [42] 100% | residual activity [43] 100% | residual activity [44] 100% | residual activity [45] 97%

From ChEMBL document CHEMBL4507274 (2021)
